SMILES strings stand for the structures.

The test deals with T1, cannabinoid 1 receptor (hCB1R) (Homo sapiens, UniProt P21554).
T1 construct: expressed in transfected cells; host or cells: HEK293
T1 sequence (P21554 whole entry): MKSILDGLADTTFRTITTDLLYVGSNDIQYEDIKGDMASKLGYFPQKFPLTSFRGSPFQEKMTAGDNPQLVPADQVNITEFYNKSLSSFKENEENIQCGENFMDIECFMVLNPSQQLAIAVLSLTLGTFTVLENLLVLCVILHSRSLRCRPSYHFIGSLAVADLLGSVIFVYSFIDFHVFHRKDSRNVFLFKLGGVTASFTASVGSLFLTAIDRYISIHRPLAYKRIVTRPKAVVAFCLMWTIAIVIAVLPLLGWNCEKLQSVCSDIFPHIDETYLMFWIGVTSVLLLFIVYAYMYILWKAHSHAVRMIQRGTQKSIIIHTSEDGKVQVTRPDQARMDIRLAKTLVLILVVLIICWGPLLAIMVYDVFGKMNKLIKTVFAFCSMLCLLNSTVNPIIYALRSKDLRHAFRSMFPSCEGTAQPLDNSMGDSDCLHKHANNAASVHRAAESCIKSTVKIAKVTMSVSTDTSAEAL
Put plainly: In vitro functional assay with recombinant cells (FLIPR), CB1. The following applies: recombinant HEK293 cells expressing CB1 and G-protein; intracellular Ca2+ change after reference agonist, 20 min preincubation; read-out: hCB1R: FLIPR; IC50. It is filed as cell-based. How it is done: In vitro functional assays with recombinant cells:
Function-testing assays were performed by means of the FLIPR technique (“Fluorometric Imaging Plate Reader”, Molecular Devices Corp.).
To this end, ligand-induced changes in the intracellular concentration of Ca^2+ in recombinant HEK293 cells, which expressed both a cannabinoid receptor (CB1 or CB2) and G-protein Galphal6, were determined. For the studies, cells were sown into 96-well microtiter plates (60 000 cells/well) and left to grow overnight. The medium was removed and the cells were incubated in buffer which contained the fluorescent dye Fluo-4. After this loading with dye, the cells were washed, test substance was added dissolved in buffer, the mixture was incubated for 20 minutes, a known cannabinoid receptor agonist as a reference agonist was added in buffer and, finally, the changes in the intracellular Ca^2+ concentration were measured in the FLIPR unit.
Results were presented as the percentage change relative to the control (0%: analogous experiment without test substance and without reference agonist, i.e. only with buffer; 100%: analogous experiment without test substance, but with reference agonist in excess), and used to calculate dose/action curves, and IC50 values were determined.
The values of the functional assay compared to the cannabinoid 1 receptor including illustrative selectivities compared to the cannabinoid 2 receptor can be taken from table 1 which follows.
On to `CC1(C)C(=O)N(c2ccc(C#N)c(C3CC3)c2)C(=O)N1Cc1ccc(F)cc1NC(=O)Nc1ccc(S(C)(=O)=O)cc1` [Example 30, 1-{2-[3-(4-Cyano-3-cyclopropylphenyl)-5,5-dimethyl-2,4-dioxoimidazolidin-1-ylmethyl]-5-fluorophenyl}-3-(4-methanesulfonylphenyl)urea], for which the IC50 was determined as 11 nM.
The figure for `CSc1ccc(NC(=O)Nc2cc(F)ccc2CN2C(=O)N(c3ccc(C#N)c(C4CC4)c3)C(=O)C2(C)C)cc1` [Example 30.1, 1-{2-[3-(4-cyano-3-cyclopropylphenyl)-5,5-dimethyl-2,4-dioxoimidazolidin-1-ylmethyl]-5-fluorophenyl}-3-(4-methylsulfanylphenyl)urea] is 12 nM; for `CC1(C)C(=O)N(c2ccc(F)c(C(F)(F)F)c2)C(=O)N1Cc1ccc(F)cc1NC(=O)Nc1ccc(NS(C)(=O)=O)cc1` [Example 31, N-[4-(3-{5-Fluoro-2-[3-(4-fluoro-3-trifluoromethylphenyl)-5,5-dimethyl-2,4-dioxoimidazolidin-1-ylmethyl]phenyl}ureido)phenyl]methanesulfonamide] it is 32 nM.
The figure for `CC1(C)C(=O)N(c2ccc(C#N)c(C(F)(F)F)c2)C(=O)N1Cc1ccc(F)cc1NC(=O)Nc1ccc(O)cc1` [Example 41, 1-{2-[3-(4-Cyano-3-trifluoromethylphenyl)-5,5-dimethyl-2,4-dioxo-imidazolidin-1-ylmethyl]-5-fluorophenyl}-3-(4-hydroxyphenyl)urea] is 4 nM; for `CC1(C)C(=O)N(c2ccc(C#N)c(C3CC3)c2)C(=O)N1Cc1ccc(F)cc1NC(=O)Nc1ccc(S(=O)(=O)CC(=O)O)cc1` [Example 47, [4-(3-{2-[3-(4-Cyano-3-cyclopropylphenyl)-5,5-dimethyl-2,4-dioxoimidazolidin-1-ylmethyl]-5-fluorophenyl}ureido)benzenesulfonyl]acetic acid] it is 25 nM.
The figure for `CC1(C)C(=O)N(c2ccc(C#N)c(C(F)(F)F)c2)C(=O)N1Cc1ccc(F)cc1NC(=O)Nc1ccc(SCC(=O)O)cc1` [Example 50, [4-(3-{2-[3-(4-Cyano-3-trifluoromethylphenyl)-5,5-dimethyl-2,4-dioxoimidazolidin-1-ylmethyl]-5-fluorophenyl}ureido)phenylsulfanyl]acetic acid] is 13 nM.
Consider `CC1(C)C(=O)N(c2ccc(F)c(C(F)(F)F)c2)C(=O)N1Cc1ccc(F)cc1NC(=O)Nc1ccc(C(=O)O)cc1` [Example 60, 4-(3-{5-fluoro-2-[3-(4-fluoro-3-trifluoromethylphenyl)-5,5-dimethyl-2,4-dioxoimidazolidin-1-ylmethyl]phenyl}-ureido)benzoic acid], for which the IC50 was 53 nM.
With `CC1(C)C(=O)N(c2ccc(F)c(C(F)(F)F)c2)C(=O)N1Cc1ccc(F)cc1NC(=O)Nc1ccc(C(=O)NS(C)(=O)=O)cc1` [Example 61, N-[4-(3-{5-Fluoro-2-[3-(4-fluoro-3-trifluoromethylphenyl)-5,5-dimethyl-2,4-dioxoimidazolidin-1-ylmethyl]phenyl}ureido)benzoyl]methanesulfonamide], the IC50 worked out at 16 nM.
In the case of `CC1(C)C(=O)N(c2ccc(F)c(C(F)(F)F)c2)C(=O)N1Cc1ccc(F)cc1NC(=O)Nc1ccc(C(=O)NS(=O)(=O)C(F)(F)F)cc1` [Example 62, C,C,C-trifluoro-N-[4-(3-{5-fluoro-2-[3-(4-fluoro-3-trifluoromethylphenyl)-5,5-dimethyl-2,4-dioxoimidazolidin-1-ylmethyl]phenyl}ureido)benzoyl]methanesulfonamide], the IC50 turned out to be 46 nM.
Consider `CC1(C)C(=O)N(c2ccc(F)c(C(F)(F)F)c2)C(=O)N1Cc1ccc(F)cc1NC(=O)Nc1ccc(C(=O)NS(=O)(=O)Cc2ccccc2)cc1` [Example 64, N-[4-(3-{5-fluoro-2-[3-(4-fluoro-3-trifluoromethylphenyl)-5,5-dimethyl-2,4-dioxoimidazolidin-1-ylmethyl]phenyl}ureido)benzoyl]-C-phenylmethanesulfonamide], for which the IC50 worked out at 39 nM.
The figure for `CC1(C)C(=O)N(c2ccc(F)c(C(F)(F)F)c2)C(=O)N1Cc1ccc(F)cc1NC(=O)Nc1ccc(C(=O)NS(=O)(=O)C2CC2)cc1` [Example 65, N-[4-(3-{5-fluoro-2-[3-(4-fluoro-3-trifluoromethylphenyl)-5,5-dimethyl-2,4-dioxoimidazolidin-1-ylmethyl]phenyl}ureido)benzoyl]cyclopropanesulfonamide] is 42 nM; for `CC1(C)C(=O)N(c2ccc(C#N)c(C3CC3)c2)C(=O)N1Cc1cc(C(F)(F)F)ccc1NC(=O)Nc1ccc(S(C)(=O)=O)cc1` [Example 66, 1-{2-[3-(4-Cyano-3-cyclopropylphenyl)-5,5-dimethyl-2,4-dioxoimidazolidin-1-ylmethyl]-4-trifluoromethylphenyl}-3-(4-methanesulfonylphenyl)urea] it is 10 nM.
As for `CC1(C)C(=O)N(c2ccc(C#N)c(C3CC3)c2)C(=O)N1Cc1cc(Cl)ccc1NC(=O)Nc1ccc(S(C)(=O)=O)cc1` [Example 67, 1-{4-chloro-2-[3-(4-cyano-3-cyclopropylphenyl)-5,5-dimethyl-2,4-dioxoimidazolidin-1-ylmethyl]phenyl}-3-(4-methanesulfonylphenyl)urea], the IC50 was found to be 6 nM.
In the case of `COc1cc(CN2C(=O)N(c3ccc(F)c(C(F)(F)F)c3)C(=O)C2(C)C)c(NC(=O)Nc2ccc(S(N)(=O)=O)cc2)cc1OC` [Example 68, 4-(3-{2-[3-(4-fluoro-3-trifluoromethylphenyl)-5,5-dimethyl-2,4-dioxoimidazolidin-1-ylmethyl]-4,5-dimethoxyphenyl}ureido)benzenesulfonamide] it was 39 nM.
For `CC1(C)C(=O)N(c2ccc(F)c(C(F)(F)F)c2)C(=O)N1Cc1ccc(Cl)cc1NC(=O)Nc1ccc(S(N)(=O)=O)cc1` [Example 69, 4-(3-{5-chloro-2-[3-(4-fluoro-3-trifluoromethylphenyl)-5,5-dimethyl-2,4-dioxoimidazolidin-1-ylmethyl]phenyl}ureido)benzenesulfonamide], the IC50 came out at 11 nM.
The figure for `COc1ccc(CN2C(=O)N(c3ccc(F)c(C(F)(F)F)c3)C(=O)C2(C)C)c(NC(=O)Nc2ccc(S(N)(=O)=O)cc2)c1` [Example 70, 4-(3-{2-[3-(4-fluoro-3-trifluoromethylphenyl)-5,5-dimethyl-2,4-dioxoimidazolidin-1-ylmethyl]-5-methoxyphenyl}ureido)benzenesulfonamide] is 14 nM.

(Values after patent US20110053947A1, “Arylchalcogenoarylalkyl-substituted imidazolidine-2,4-diones, process for preparation thereof, medicaments comprising these compounds and use thereof” (SANOFI-AVENTIS, priority 2008, published 2011).)
